Experiment: aqueous solubility in buffer
Assay type: physicochemical
Conditions: buffer of pH 6.5 (close to the pH of the intestine)
Method: However, like many other HIV protease inhibitors, these compounds are characteristically lipophilic and thus poorly water soluble. For example, the compound of formula I has an aqueous solubility about 1 μg/ml in the buffer of pH 6.5 (close to the pH of the intestine), which is considered as extremely poor aqueous solubility and would be expected to provide very low oral bioavailability in the free acid form.

solubility: ~1 µg/mL
Compound: CCC[C@@]1(CCc2ccccc2)CC(O)=C([C@H](CC)c2cccc(NS(=O)(=O)c3ccc(C(F)(F)F)cn3)c2)C(=O)O1 [compound of formula I]

From patent publication US6531139B1, “Self-emulsifying formulation for lipophilic compounds” (Pharmacia & Upjohn Company, priority 1997, dated 2003)
